The results in this text go back to patent publication US12569563B2, “Selective HDAC6 degraders and methods of use thereof” (DANA-FARBER CANCER INSTITUTE, INC., priority 2019, dated 2026).

For this test, the target named is T1, CRBN (Homo sapiens, UniProt Q96SW2).
T1 construct: endogenous in cells; host or cells: Flp-In 293 cells stably expressing BRD4BD2-eGFP-P2A-mCherry
The test can be described thus: Cellular CRBN engagement assay (competition with dBET6, BRD4BD2-eGFP reporter). It counts as cell-based. The note with it: Flip-In 293 BRD4BD2-eGFP cells, 100 nM dBET6, 5 h. The text has this: The cellular CRBN engagement assay measures the cellular binding affinity which is the combination of the compound's cell permeability and their binding affinity to CRBN. This is done by measuring the ability of thalidomide-based degrader molecules to compete with pan-BET bromodomain degrader dBET6 (Nowak et al., Nat. Chem. Biol. 14:706-714 (2018)) for CRBN binding in cells. If no degrader compound is present in the cell, BRD4BRD2-eGFP is degraded by dBET6 via the proteasome system. […]
Cells were seeded at 30-50% confluency in either 24, 48 or 96 well plates (3524, 3548, 3596 respectively, Costar) a day before compound treatment. The inventive compounds were titrated in the presence of 100 nM dBET6 and then were incubated with cells for 5 h following trypsinization and resuspension in DMEM media, transferred into 96-well plates (353910, Falcon®) and analyzed by flow cytometer (Guava® easyCyte™ HT, Millipore®). Signal from at least 3000 events per well was acquired and the eGFP and mCherry florescence monitored. Data was analyzed using FlowJo® (FlowJo®, LCC). Forward and side scatter outliers, frequently associated with cell debris, were removed leaving >90% of total cells, followed by removal of eGFP and mCherry signal outliers, leaving 88-90% of total cells creating the set used for quantification. […]

Regarding `CN(C(=O)CCCCCNc1cccc2c1C(=O)N(C1CCC(=O)NC1=O)C2=O)c1ccc(NC(=O)CCCCCCC(=O)NO)cc1` (stereo not shown) [Compound 2, N^1-(4-(6-((2-(2,6-dioxopiperidin-3-yl)-1,3-dioxoisoindolin-4-yl)amino)-N-methylhexanamido)phenyl)-N^8-hydroxyoctanediamide], the IC50 (as a rule, the concentration that inhibits the measured activity by half) turned out to be 5.37 µM.
